ChEMBL document CHEMBL5724914, “Linking interpersonal differences in gut microbiota composition and drug biotransformation activity” (2024)

How the values were obtained:
[1] = The drug is tested on WLS-039 corresponding to human gut metagenome with ENA study accession number: PRJEB37062 and ENA sample accession number: ERS12561746 for biotransformation under anaerobic condition. The drug concentrations were measured over 9 timepoints collected between 0 and 24 hours of incubation by liquid-chromatography-coupled mass spectrometry (LC–MS); details: 2 µM
[2] = human gut metagenome, 24 h, 2 µM
[3] = The drug is tested on WLS-052 corresponding to human gut metagenome with ENA study accession number: PRJEB37062 and ENA sample accession number: ERS12561747 for biotransformation under anaerobic condition. The drug concentrations were measured over 9 timepoints collected between 0 and 24 hours of incubation by liquid-chromatography-coupled mass spectrometry (LC–MS); details: 2 µM
[4] = human gut metagenome, 24 h, 2 µM; remark: listed apart in the source
[5] = The drug is tested on Z-013 corresponding to rabbit gut metagenome with ENA study accession number: PRJEB37062 and ENA sample accession number: ERS12561813 for biotransformation under anaerobic condition. The drug concentrations were measured over 9 timepoints collected between 0 and 24 hours of incubation by liquid-chromatography-coupled mass spectrometry (LC–MS); details: 2 µM
[6] = human gut metagenome, 24 h, 2 µM; remark: listed apart in the source
[7] = human gut metagenome, 24 h, 2 µM; remark: listed apart in the source
[8] = human gut metagenome, 24 h, 2 µM; remark: listed apart in the source
[9] = The drug is tested on WLS-350 corresponding to human gut metagenome with ENA study accession number: PRJEB37062 and ENA sample accession number: ERS12561789 for biotransformation under anaerobic condition. The drug concentrations were measured over 9 timepoints collected between 0 and 24 hours of incubation by liquid-chromatography-coupled mass spectrometry (LC–MS); details: 2 µM
[10] = human gut metagenome, 24 h, 2 µM; remark: listed apart in the source
[11] = The drug is tested on Z-006 corresponding to mouse gut metagenome with ENA study accession number: PRJEB37062 and ENA sample accession number: ERS12561806 for biotransformation under anaerobic condition. The drug concentrations were measured over 9 timepoints collected between 0 and 24 hours of incubation by liquid-chromatography-coupled mass spectrometry (LC–MS); details: 2 µM
[12] = The drug is tested on WLS-082 corresponding to human gut metagenome with ENA study accession number: PRJEB37062 and ENA sample accession number: ERS12561751 for biotransformation under anaerobic condition. The drug concentrations were measured over 9 timepoints collected between 0 and 24 hours of incubation by liquid-chromatography-coupled mass spectrometry (LC–MS); details: 2 µM
[13] = human gut metagenome, 24 h, 2 µM; remark: listed apart in the source
[14] = human gut metagenome, 24 h, 2 µM; remark: listed apart in the source
[15] = The drug is tested on WLS-006 corresponding to human gut metagenome with ENA study accession number: PRJEB37062 and ENA sample accession number: ERS12561741 for biotransformation under anaerobic condition. The drug concentrations were measured over 9 timepoints collected between 0 and 24 hours of incubation by liquid-chromatography-coupled mass spectrometry (LC–MS); details: 2 µM
[16] = The drug is tested on WLS-010 corresponding to human gut metagenome with ENA study accession number: PRJEB37062 and ENA sample accession number: ERS12561743 for biotransformation under anaerobic condition. The drug concentrations were measured over 9 timepoints collected between 0 and 24 hours of incubation by liquid-chromatography-coupled mass spectrometry (LC–MS); details: 2 µM
[17] = human gut metagenome, 24 h, 2 µM; remark: listed apart in the source
[18] = The drug is tested on WLS-370 corresponding to human gut metagenome with ENA study accession number: PRJEB37062 and ENA sample accession number: ERS12561793 for biotransformation under anaerobic condition. The drug concentrations were measured over 9 timepoints collected between 0 and 24 hours of incubation by liquid-chromatography-coupled mass spectrometry (LC–MS); details: 2 µM
[19] = The drug is tested on WLS-007 corresponding to human gut metagenome with ENA study accession number: PRJEB37062 and ENA sample accession number: ERS12561742 for biotransformation under anaerobic condition. The drug concentrations were measured over 9 timepoints collected between 0 and 24 hours of incubation by liquid-chromatography-coupled mass spectrometry (LC–MS); details: 2 µM
[20] = The drug is tested on Z-011 corresponding to mouse gut metagenome with ENA study accession number: PRJEB37062 and ENA sample accession number: ERS12561811 for biotransformation under anaerobic condition. The drug concentrations were measured over 9 timepoints collected between 0 and 24 hours of incubation by liquid-chromatography-coupled mass spectrometry (LC–MS); details: 2 µM
Further: call rule not given here.

CN(C)C(=O)Oc1cc(OC(=O)N(C)C)cc(C(O)CNC(C)(C)C)c1 (stereo not given) [BAMBUTEROL]
Bacterial Biotransformation [1]: Compound NOT metabolized
Bacterial Biotransformation [2]: Compound NOT metabolized
Bacterial Biotransformation [3]: Compound NOT metabolized
Bacterial Biotransformation [4]: Compound metabolized
Bacterial Biotransformation [5]: Compound NOT metabolized
Bacterial Biotransformation [6]: Compound NOT metabolized
Bacterial Biotransformation [7]: Compound metabolized
Bacterial Biotransformation [8]: Compound NOT metabolized
Bacterial Biotransformation [9]: Compound metabolized
Bacterial Biotransformation [10]: Compound NOT metabolized
Bacterial Biotransformation [11]: Compound NOT metabolized
Bacterial Biotransformation [12]: Compound NOT metabolized
Bacterial Biotransformation [13]: Compound NOT metabolized
Bacterial Biotransformation [14]: Compound NOT metabolized
Bacterial Biotransformation [15]: Compound metabolized
Bacterial Biotransformation [16]: Compound NOT metabolized
Bacterial Biotransformation [17]: Compound NOT metabolized
Bacterial Biotransformation [18]: Compound NOT metabolized
Bacterial Biotransformation [19]: Compound metabolized
Bacterial Biotransformation [20]: Compound NOT metabolized
